A short description of series [1]: Stability in human plasma assessed as half life at pH 7.4 measured upto 5 hrs by LC-MS/MS analysis. Type of series: ADME, cell-free.
Series [2] is described as follows: Metabolic stability in human liver microsomes assessed as half life in presence of NADPH measured upto 60 mins by LC-MS/MS analysis. In kind it is ADME, Microsome. In general terms: Liver microsomes are vesicles of endoplasmic reticulum, rich in cytochrome P450 enzymes.
Series [3] is described as follows: Metabolic stability in human liver microsomes assessed as half life in presence of NADPH measured upto 60 mins in presence of 2.5 mM ABT cytochrome P450 inhibitor by LC-MS/MS analysis. Type of series: ADME, Microsome. The note with it: with ABT (cytochrome P450 inhibitor).
Series [4] is described as follows: Metabolic stability in human liver microsomes assessed as half life in presence of NADPH measured upto 60 mins in presence of 5 mM BNPP carboxylesterase inhibitor by LC-MS/MS analysis. Type of series: ADME, Microsome. To be noted: with BNPP (carboxylesterase inhibitor).
A short description of series [5]: Ratio of half life in human liver microsomes in presence of ABT to t1/2 in human liver microsomes absence of ABT. Type of series: ADME, Microsome.
Series [6] in a line: Ratio of half life in human liver microsomes in presence of BNPP to t1/2 in human liver microsomes absence of BNPP. In kind it is ADME, Microsome.
A short description of series [7]: Metabolic stability in human liver microsomes assessed as half life in presence of NADPH measured upto 60 mins in presence of 50 uM furafylline by LC-MS/MS analysis. In kind it is ADME, Microsome. The note with it: with furafylline.
The nature of series [8]: Metabolic stability in human liver microsomes assessed as half life in presence of NADPH measured upto 60 mins in presence of 2 uM ketoconazole by LC-MS/MS analysis. In kind it is ADME, Microsome. The note with it: with ketoconazole.
Series [9] is described as follows: Metabolic stability in human liver microsomes assessed as intrinsic clearance measured per mg of protein in presence of NADPH measured upto 60 mins in presence of 10 uM montelukast by LC-MS/MS analysis. Type of series: ADME, Microsome. To be noted: 1 h.
Series [10] is described as follows: Metabolic stability in human liver microsomes assessed as half life in presence of NADPH measured upto 60 mins in presence of 8 uM quinidine by LC-MS/MS analysis. Type of series: ADME, Microsome. To be noted: with quinidine.
A short description of series [11]: Metabolic stability in human liver microsomes assessed as intrinsic clearance measured per mg of protein in presence of NADPH measured upto 60 mins in presence of 10 uM sulfaphenazole by LC-MS/MS analysis. In kind it is ADME, Microsome. To be noted: 1 h.
Series [12] in a line: Metabolic stability in human liver microsomes assessed as intrinsic clearance measured per mg of protein in presence of NADPH measured upto 60 mins in presence of 2 uM ticlopidine by LC-MS/MS analysis. To be noted: 1 h. In kind it is ADME, Microsome.
Series [13] can be described thus: Metabolic stability in human liver microsomes assessed as intrinsic clearance measured per mg of protein in presence of NADPH measured upto 60 mins in presence of 50 uM furafylline by LC-MS/MS analysis. The note with it: 1 h. In kind it is ADME, Microsome.
A short description of series [14]: Metabolic stability in human liver microsomes assessed as intrinsic clearance measured per mg of protein in presence of NADPH measured upto 60 mins in presence of 8 uM quinidine by LC-MS/MS analysis. In kind it is ADME, Microsome. The note with it: 1 h.
Series [15] can be described thus: Metabolic stability in human liver microsomes assessed as half life in presence of NADPH measured upto 60 mins in presence of 2 uM ticlopidine by LC-MS/MS analysis. Type of series: ADME, Microsome. The note with it: with ticlopidine.
Series [16] in a line: Metabolic stability in human liver microsomes assessed as half life in presence of NADPH measured upto 60 mins in presence of 10 uM montelukast by LC-MS/MS analysis. Type of series: ADME, Microsome. To be noted: with montelukast.
A short description of series [17]: Metabolic stability in human liver microsomes assessed as half life in presence of NADPH measured upto 60 mins in presence of 10 uM sulfaphenazole by LC-MS/MS analysis. To be noted: with sulfaphenazole. In kind it is ADME, Microsome.
The nature of series [18]: Metabolic stability in human liver microsomes assessed as intrinsic clearance measured per mg of protein in presence of NADPH measured upto 60 mins in presence of 2 uM ketoconazole by LC-MS/MS analysis. Type of series: ADME, Microsome. To be noted: 1 h.

As usually defined, the half-life is the time in which the quantity being followed falls by half.

Regarding `CCCCC(=O)SCCCCCCC(=O)Nc1nc(-c2ccc(F)cc2)cs1`, in series [1], the half-life is 179 min.
As for `O=C(CCCCCCSC(=O)c1ccccc1)Nc1nc(-c2ccc(F)cc2)cs1`, the half-life was 2.34 min in series [2], more than 300 min in series [1], 5.78 min in [3] and 36.3 min in [4]. Also, the Ratio came to 0.74 in series [5] and 4.63 in series [6].
Regarding `CC(C)(C)C(=O)SCCCCCCC(=O)Nc1nc(-c2ccc(F)cc2)cs1`, the half-life in [2] was 4.11 min; in series [1], more than 300 min.
Turning to `CCC(=O)SCCCCCCC(=O)Nc1nc(-c2ccc(F)cc2)cs1`, the half-life in [2] was 1.17 min; in series [1], 160 min; in [3], 0.56 min; in series [4], 9.11 min. Besides, the Ratio in [5] amounted to 0.48; in series [6], 7.77.
For `CCOP(=O)(OCC)SCCCCCCC(=O)Nc1nc(-c2ccc(F)cc2)cs1`, the half-life in [2] was 2.14 min; in [1], more than 300 min; in series [3] it was 24.5 min; in [4], 54.5 min. Moreover, the Ratio in [5] is on record as 8.2; in series [6], 18.22.
For the molecule `COc1ccc(C(=O)SCCCCCCC(=O)Nc2nc(-c3ccc(F)cc3)cs2)cc1`, the half-life in series [2] was 10.8 min; in series [1] it was more than 300 min.
Regarding `COP(=O)(OC)SCCCCCCC(=O)Nc1nc(-c2ccc(F)cc2)cs1`, the half-life was 9.85 min in series [2], more than 300 min in [1], 44 min in series [3] and 165 min in series [4]. Further, the figures for the Ratio in [5] and in series [6] were 4.46 and 16.8, respectively.
Regarding `CC(C)N(C(=O)SCCCCCCC(=O)Nc1nc(-c2ccc(F)cc2)cs1)C(C)C`, the half-life was 1.52 min in series [7]; 1.27 min in series [2]; more than 300 min in series [1]; 31.5 min in [8]; 81.1 min in series [3]; 17.1 min in series [4]. Moreover, the half-life was 1.15 min in [10], 1.39 min in [15], 1.25 min in series [16] and 1.53 min in series [17]. For the same molecule, the CLint in [9] turned out to be 1680 µL/min/mg; in series [11], 1370 µL/min/mg; in [12], 1520 µL/min/mg; in series [13], 1380 µL/min/mg; in series [14], 1840 µL/min/mg; in [18] it was 67 µL/min/mg. The Ratio worked out at 9.6 in series [5] and 2.03 in [6].
Consider `CN(C)C(=O)SCCCCCCC(=O)Nc1nc(-c2ccc(F)cc2)cs1`, for which the half-life in series [7] is 2.98 min; in [2], 3.09 min; in series [1] it was more than 300 min; in [8], 5.99 min; in series [3], 114 min; in series [4], 22.8 min. Further, the half-life in [10] amounted to 3.11 min; in [15] it was 2.85 min; in series [16], 5.76 min; in series [17], 2.94 min. The CLint in [9] worked out at 365 µL/min/mg; in series [11], 716 µL/min/mg; in series [12], 737 µL/min/mg; in [13], 708 µL/min/mg; in series [14] it was 675 µL/min/mg; in series [18], 351 µL/min/mg. Moreover, the Ratio in series [5] turned out to be 26.54; in series [6], 5.32.
With `CC(C)(C)C(=O)NCSCCCCCCC(=O)Nc1nc(-c2ccc(F)cc2)cs1`, the half-life in series [7] was 1.41 min; in series [2] it was 1.75 min; in [1], more than 300 min; in series [8], 28.5 min; in [3] it was 211 min; in series [4], 27.6 min. Further, the half-life came out at 1.43 min in series [10], 1.38 min in [15], 1.84 min in series [16] and 1.41 min in [17]. Besides, the CLint in series [9] was found to be 1140 µL/min/mg; in [11], 1490 µL/min/mg; in series [12], 1520 µL/min/mg; in series [13] it was 1490 µL/min/mg; in series [14] it was 1470 µL/min/mg; in [18], 74 µL/min/mg. Further, the Ratio in series [5] is reported as 101.23; in series [6], 13.27.
For the molecule `O=C(CCCCCCSC(=O)N1CCCC1)Nc1nc(-c2ccc(F)cc2)cs1`, the half-life was 11.4 min in [2] and more than 300 min in [1].
As to `O=C(CCCCCCSC(=O)c1ccc2c(c1)OCCO2)Nc1nc(-c2ccc(F)cc2)cs1`, the half-life was 11.4 min in [2] and more than 300 min in series [1].
For `CNC(=O)SCCCCCCC(=O)Nc1nc(-c2ccc(F)cc2)cs1`, the half-life was 7.1 min in series [7]; 4.81 min in series [2]; more than 300 min in series [1]; 18.2 min in series [8]; 68.3 min in series [3]; 54.9 min in [4]. Also, the half-life in series [10] was 7.28 min; in [15], 7.42 min; in [16] it was 10.4 min; in [17], 7.61 min. For the same molecule, the CLint in series [9] amounted to 203 µL/min/mg; in series [11], 276 µL/min/mg; in series [12], 283 µL/min/mg; in [13], 296 µL/min/mg; in [14], 288 µL/min/mg; in series [18], 115 µL/min/mg. Further, the Ratio amounted to 10.62 in [5] and 8.53 in [6].
Turning to `O=C(CCCCCCSC(=O)Cc1ccccc1)Nc1nc(-c2ccc(F)cc2)cs1`, the values for the half-life in series [2] and in [1] were 2.14 min and more than 160 min, respectively.
On the same counts, the results for `CCCCCNC(=O)SCCCCCCC(=O)Nc1nc(-c2ccc(F)cc2)cs1` are 5.5 min and more than 300 min.
As to `O=C(CCCCCCSSC1CCCCC1)Nc1nc(-c2ccc(F)cc2)cs1`, the half-life in [2] was 18.9 min; in series [1], more than 300 min.
Regarding `CCCCSSCCCCCCC(=O)Nc1nc(-c2ccc(F)cc2)cs1`, the half-life is 6.08 min in [2], more than 300 min in series [1], 16.9 min in series [3] and 10.1 min in series [4]. Moreover, the Ratio is listed as 2.78 in series [5] and 1.66 in series [6].
Consider `O=C(CCCCCCSP(=O)(c1ccccc1)c1ccccc1)Nc1nc(-c2ccc(F)cc2)cs1`, for which the half-life in series [2] is 0.92 min; in [1], more than 300 min; in series [3] it was 34.2 min; in series [4], 24.5 min. Further, the Ratio in series [5] is reported as 37.24; in series [6] it was 26.7.
As to `COC(=O)SCCCCCCC(=O)Nc1nc(-c2ccc(F)cc2)cs1`, the half-life is 0.79 min in series [2], more than 300 min in series [1], 0.85 min in [3] and 28.2 min in [4]. For the same molecule, the Ratio was found to be 1.09 in series [5] and 35.87 in [6].
In the case of `CC(C)(C)SSCCCCCCC(=O)Nc1nc(-c2ccc(F)cc2)cs1`, the half-life in series [2] is 12.5 min; in [1], more than 300 min; in series [3] it was 26.7 min; in series [4] it was 15.8 min. The Ratio in [5] is 2.13; in [6], 1.26.
Consider `CC(=O)SCCCCCCC(=O)Nc1nc(-c2ccc(F)cc2)cs1`, for which the half-life was 0.57 min in series [2], 151 min in [1], 0.53 min in series [3] and 5.78 min in series [4]. The Ratio in series [5] worked out at 0.93; in [6], 10.1.
For `CCCCCCSSCCCCCCC(=O)Nc1nc(-c2ccc(F)cc2)cs1`, the half-life in [2] is 11.9 min; in series [1], more than 300 min.
In the case of `O=C(CCCCCCSSCCCCCCC(=O)Nc1nc(-c2ccc(F)cc2)cs1)Nc1nc(-c2ccc(F)cc2)cs1`, in series [1], the half-life was 247 min.
Turning to `O=C(CCCCCCSC(=O)c1ccc(C(F)(F)F)cc1)Nc1nc(-c2ccc(F)cc2)cs1`, the half-life in series [2] was 5.77 min; in series [1], more than 300 min; in [3] it was 3.82 min; in series [4], 14.5 min. Moreover, the results for the Ratio in series [5] and in series [6] were 0.66 and 2.52, respectively.
